In patent US10689398B2, “OXA-Diazaspiro compounds having activity against pain” (ESTEVE PHARMACEUTICALS, S.A., priority 2015, dated 2020):
pKi: −log10 of the molar value.

The compounds below were run against human σ1 receptor (Homo sapiens (Human), UniProt Q99720) (assay: Human σ1 receptor radioligand assay). Details: transfected HEK-293 membranes, [3H](+)-pentazocine radioligand.
Format: binding
Method in brief: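 Membranes from HEK-293 cells transfected with human σ1 receptor (7 μg) incubated with 5 nM [3H](+)-pentazocine in 50 mM Tris-HCl pH 8, 120 min at 37° C. Non-specific binding defined with 10 μM haloperidol. Bound radioligand separated by filtration, washed with ice-cold 10 mM Tris-HCl pH 7.4, and counted by scintillation.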

Sequence of human σ1 receptor (Q99720 whole entry): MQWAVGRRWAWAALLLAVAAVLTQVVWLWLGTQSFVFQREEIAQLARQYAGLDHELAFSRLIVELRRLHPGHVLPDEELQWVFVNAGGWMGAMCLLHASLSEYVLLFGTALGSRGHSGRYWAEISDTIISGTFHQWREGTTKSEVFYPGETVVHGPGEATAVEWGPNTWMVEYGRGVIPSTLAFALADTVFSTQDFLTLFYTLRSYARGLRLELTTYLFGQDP

Structure (SMILES)	pKi
CCN1CC(C)(C)OC2(CCCN(CCc3ccccc3)CC2)C1 (stereo not drawn) [Example 87, 4-ethyl-2,2-dimethyl-9-phenethyl-1-oxa-4,9-diazaspiro[5.6]dodecane]	> 7.00
CCN1CC(C)(C)OC2(CCCN(CCC(C)C)CC2)C1 (stereo not drawn) [Example 88, 4-ethyl-9-isopentyl-2,2-dimethyl-1-oxa-4,9-diazaspiro[5.6]dodecane]	> 7.00
CCN1CC(C)(C)OC2(CCCN(CC(C)C)CC2)C1 (stereo not drawn) [Example 89, 4-ethyl-9-isobutyl-2,2-dimethyl-1-oxa-4,9-diazaspiro[5.6]dodecane]	> 7.00
c1ccc(CCN2CC3(CN(Cc4ccccc4)CC4(CC4)O3)C2)cc1 [Example 90, 10-benzyl-7-phenethyl-4-oxa-7,10-diazadispiro[2.1.3.3]undecane]	> 7.00
O=C(c1ccccc1)N1CC2(CC2)OC2(CN(CCc3ccccc3)C2)C1 [Example 91, (7-Phenethyl-4-oxa-7,10-diazadispiro[2.1.3.3]undecan-10-yl)(phenyl)methanone]	≤ 6.30
CCN1C[C@]2(CCCN(Cc3ccccc3)CC2)OC2(CC2)C1=O [Example 92, (R)-8-benzyl-13-ethyl-4-oxa-8,13-diazadispiro[2.1.6.3]tetradecan-14-one]	> 7.00
CCN1C[C@@]2(CCCN(Cc3ccccc3)CC2)OC2(CC2)C1=O [Example 93, (S)-8-benzyl-13-ethyl-4-oxa-8,13-diazadispiro[2.1.6.3]tetradecan-14-one]	> 7.00
CC1(C)CN(C(=O)c2ccccc2)C[C@]2(CCCN(CCc3ccccc3)CC2)O1 [Example 94, (R)-(2,2-dimethyl-9-phenethyl-1-oxa-4,9-diazaspiro[5.6]dodecan-4-yl)(phenyl)methanone]	> 6.30
CC1(C)CN(C(=O)c2ccccc2)C[C@@]2(CCCN(CCc3ccccc3)CC2)O1 [Example 95, (S)-(2,2-dimethyl-9-phenethyl-1-oxa-4,9-diazaspiro[5.6]dodecan-4-yl)(phenyl)methanone]	> 6.30
